Here are results for twelve compounds from ChEMBL document CHEMBL4814005, “Pragmatic recruitment of memantine as the capping group for the design of HDAC inhibitors: A preliminary attempt to unravel the enigma of glioblastoma” (Eur J Med Chem, 2021).

Molecules are shown by their SMILES. Activity calls are given as the source filed them. The rule behind the calls is not given here.

In series [1] the test system is U-87 MG. The series is described as follows: Antiproliferation activity against human U-87 MG cells assessed as growth inhibition measured after 1 hr by MTT assay. The class given is functional, cell-based, U-87MG ATCC.
For series [2], the system named is U-87 MG. The experiment in a line: Antiproliferation activity against human U-87 MG cells assessed as decrease in cell growth at 30 uM after 3 days by MTT assay. Details: scale not given: the % may be the effect or the level left. It is filed as functional, U-87MG ATCC. Particulars: time 3 day. (Tetrazolium dyes change colour on reduction, which living cells bring about.)

Series [3] has as its system A 172. The experiment in a line: Induction of cell cycle arrest in human A 172 cells assessed as accumulation at G2/M phase by propidium iodide staining based flow cytometric analysis. Particulars: dose microM <=10. The class given is functional. For orientation: In flow cytometry, cells or beads pass a laser one at a time.
The subject of series [4] is A 172. The series is described as follows: Induction of cell cycle arrest in human A 172 cells assessed as accumulation at G0/G1 phase by propidium iodide staining based flow cytometric analysis. It is filed as functional. The following applies: dose microM <=10.
The test system of series [5] is A 172. The experiment in a line: Induction of apoptosis in human A 172 cells assessed as upregulation of activated caspase 3 protein at 3 uM after 24 hrs by western blot analysis. The class given is functional, cell-based. Background: Immunoblotting shows a protein as a band on a membrane.
Series [6] deals with A 172. The experiment in a line: Induction of apoptosis in human A 172 cells assessed as upregulation of cleaved PARP at 3 uM after 24 hrs by western blot analysis. It is filed as functional, cell-based.
For series [7], the system named is U-87 MG. The series is described as follows: Antiproliferation activity against human U-87 MG cells assessed as decrease in cell growth at 30 uM incubated for 2 days by MTT assay. Particulars: U-87MG ATCC, time 2.0 day. The class given is functional, cell-based.
For series [8], the system named is A 172. The series is described as follows: Induction of cell cycle arrest in human A 172 cells assessed as accumulation at S phase upto 10 uM by propidium iodide staining based flow cytometric analysis. Particulars: dose microM <=10. It is filed as functional.
The target of a further series is Histone deacetylase 1 (Homo sapiens, UniProt Q13547). The experiment in a line: Inhibition of human recombinant HDAC1 expressed in baculovirus infected insect cells using [RHKK(Ac)] fluorogenic substrate.
Series [9] concerns the target T1, Protein deacetylase HDAC6 (Homo sapiens, UniProt Q9UBN7).
T1 sequence (Q9UBN7 whole entry): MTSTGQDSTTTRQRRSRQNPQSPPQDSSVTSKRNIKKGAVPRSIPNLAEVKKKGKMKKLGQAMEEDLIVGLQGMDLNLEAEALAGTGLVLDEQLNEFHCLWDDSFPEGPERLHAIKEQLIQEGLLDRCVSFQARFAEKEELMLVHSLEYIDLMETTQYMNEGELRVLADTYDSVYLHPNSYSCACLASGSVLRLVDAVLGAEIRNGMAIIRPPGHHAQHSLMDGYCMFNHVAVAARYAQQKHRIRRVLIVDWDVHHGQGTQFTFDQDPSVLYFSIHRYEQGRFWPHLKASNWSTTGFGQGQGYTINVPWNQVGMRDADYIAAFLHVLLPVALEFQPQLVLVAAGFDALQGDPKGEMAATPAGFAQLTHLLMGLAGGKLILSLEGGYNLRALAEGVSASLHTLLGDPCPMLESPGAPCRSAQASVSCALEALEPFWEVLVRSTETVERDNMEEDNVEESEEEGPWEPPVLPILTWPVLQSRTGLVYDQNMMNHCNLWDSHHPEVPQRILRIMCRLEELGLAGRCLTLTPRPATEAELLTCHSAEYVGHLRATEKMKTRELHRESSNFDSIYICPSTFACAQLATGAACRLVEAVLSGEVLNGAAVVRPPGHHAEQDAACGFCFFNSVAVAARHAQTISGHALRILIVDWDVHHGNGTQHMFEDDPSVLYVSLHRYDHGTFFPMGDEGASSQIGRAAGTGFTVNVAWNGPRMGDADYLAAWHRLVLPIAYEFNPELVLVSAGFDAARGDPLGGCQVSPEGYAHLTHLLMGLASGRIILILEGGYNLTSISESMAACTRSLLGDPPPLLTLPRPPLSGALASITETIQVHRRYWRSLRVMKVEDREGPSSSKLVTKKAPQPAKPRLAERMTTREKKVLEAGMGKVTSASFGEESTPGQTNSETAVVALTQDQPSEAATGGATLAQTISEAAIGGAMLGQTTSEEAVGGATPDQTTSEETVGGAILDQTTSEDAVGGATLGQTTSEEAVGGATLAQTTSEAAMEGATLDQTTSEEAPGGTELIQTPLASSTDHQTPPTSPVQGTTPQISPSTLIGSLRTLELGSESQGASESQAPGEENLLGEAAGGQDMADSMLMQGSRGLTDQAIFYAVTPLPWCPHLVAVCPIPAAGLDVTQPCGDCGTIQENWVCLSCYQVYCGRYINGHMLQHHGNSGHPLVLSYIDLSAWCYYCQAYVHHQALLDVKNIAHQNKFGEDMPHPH
The series is described as follows: Inhibition of human recombinant HDAC6 expressed in baculovirus infected insect cells using [RHKK(Ac)] fluorogenic substrate.

The next series deals with T2, Histone deacetylase 8 (Homo sapiens, UniProt Q9BY41).
T2 sequence (Q9BY41 whole entry): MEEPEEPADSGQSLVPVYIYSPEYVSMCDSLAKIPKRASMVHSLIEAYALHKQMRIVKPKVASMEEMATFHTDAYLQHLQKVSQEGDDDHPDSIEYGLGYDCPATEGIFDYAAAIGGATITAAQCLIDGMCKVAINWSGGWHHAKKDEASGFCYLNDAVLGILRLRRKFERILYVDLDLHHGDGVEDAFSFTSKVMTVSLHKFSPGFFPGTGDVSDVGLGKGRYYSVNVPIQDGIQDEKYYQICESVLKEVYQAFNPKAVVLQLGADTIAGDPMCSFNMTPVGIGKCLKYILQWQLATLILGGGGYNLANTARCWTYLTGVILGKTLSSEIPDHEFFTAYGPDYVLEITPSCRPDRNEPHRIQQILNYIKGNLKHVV
The series is described as follows: Inhibition of human recombinant HDAC8 using [RHKK(Ac)] fluorogenic substrate.

A further series concerns the target Histone deacetylase 3 (Homo sapiens, UniProt O15379). The series is described as follows: Inhibition of human recombinant HDAC3 using [RHKK(Ac)] fluorogenic substrate.
Series [10] has as its system U-87 MG. The experiment in a line: Antiproliferation activity against human U-87 MG cells assessed as growth inhibition at 10 uM after 3 days by MTT assay. Particulars: 72 h, time 3 day. It is filed as functional, U-87MG ATCC.
Series [11] concerns U-87 MG. The series is described as follows: Antiproliferation activity against TMZ resistant human U-87 MG R-50 cells assessed as growth inhibition at 3 uM by MTT assay. It is filed as functional, cell-based. Particulars: U-87MG ATCC.
A further series relates to Glioblastoma cell line. The experiment in a line: Antiproliferation activity against TMZ resistant human glioblastoma cell P1S assessed as growth inhibition at 3 uM by MTT assay. The class given is functional.
The test system of series [12] is A 172. The experiment in a line: Induction of cell cycle arrest in human A 172 cells assessed as sub-G1 population upto 10 uM after 2 days by flow cytometry/PI staining assay. It is filed as functional, cell-based. The following applies: dose microM <=10, time 2.0 day.
A short description of series [13]: Permeability of compound by PAMPA-BBB assay.

As a reminder, the IC50 is the concentration needed to halve the response being measured. The term inhibition denotes how much of the control response was suppressed.

Sequence of Histone deacetylase 3 (O15379 whole entry): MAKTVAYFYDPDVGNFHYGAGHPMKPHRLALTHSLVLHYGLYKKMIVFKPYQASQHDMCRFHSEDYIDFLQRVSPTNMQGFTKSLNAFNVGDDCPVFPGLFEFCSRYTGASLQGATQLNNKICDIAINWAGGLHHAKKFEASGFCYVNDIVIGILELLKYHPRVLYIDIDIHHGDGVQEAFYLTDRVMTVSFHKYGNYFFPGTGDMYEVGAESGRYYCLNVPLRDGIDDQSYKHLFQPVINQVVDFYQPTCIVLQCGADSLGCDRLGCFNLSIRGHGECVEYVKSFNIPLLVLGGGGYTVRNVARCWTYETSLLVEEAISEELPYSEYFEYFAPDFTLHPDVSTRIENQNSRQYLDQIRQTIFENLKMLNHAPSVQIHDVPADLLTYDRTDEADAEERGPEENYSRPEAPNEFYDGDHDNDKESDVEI
Sequence of Histone deacetylase 1 (Q13547 whole entry): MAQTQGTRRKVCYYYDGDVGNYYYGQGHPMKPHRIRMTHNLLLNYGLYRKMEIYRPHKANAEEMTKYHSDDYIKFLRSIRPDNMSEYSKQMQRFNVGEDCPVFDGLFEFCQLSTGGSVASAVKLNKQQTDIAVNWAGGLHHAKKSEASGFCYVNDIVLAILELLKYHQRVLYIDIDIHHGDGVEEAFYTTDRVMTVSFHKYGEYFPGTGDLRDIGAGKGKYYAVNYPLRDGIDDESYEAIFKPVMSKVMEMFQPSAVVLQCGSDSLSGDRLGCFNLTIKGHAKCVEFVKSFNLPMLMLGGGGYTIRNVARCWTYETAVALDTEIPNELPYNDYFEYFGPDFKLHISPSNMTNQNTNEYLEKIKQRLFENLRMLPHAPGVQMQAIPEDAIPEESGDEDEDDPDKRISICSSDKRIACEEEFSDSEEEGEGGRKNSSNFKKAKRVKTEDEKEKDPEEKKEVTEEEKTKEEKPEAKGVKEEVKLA

Take `CC12CC3CC(C)(C1)CC(N)(C3)C2.Cl` [MEMANTINE HYDROCHLORIDE]: the IC50 with U-87 MG [1] was found to be 23600 nM. The Activity with U-87 MG [2] is recorded as 50%; in the series on A 172 [3], 28%; with A 172 [4] it was 57%; in the series with A 172 [8], 10%. Further, the result in the series on A 172 [5], in the series with A 172 [6] and in the series on U-87 MG [7] was inactive.
Consider `CC12CC3CC(C)(C1)CC(NC(=O)CCCCCC(=O)NO)(C3)C2`, for which the IC50 in the series with U-87 MG [1] turned out to be 16100 nM; on Histone deacetylase 1 it was 16100 nM; in series [9], 206 nM; on Histone deacetylase 8 it was 4140 nM.
`CC12CC3CC(C)(C1)CC(NCc1ccc(C(=O)NO)cc1)(C3)C2`: the IC50 turned out to be 45200 nM with U-87 MG [1], 3200 nM in series [9] and 8630 nM at Histone deacetylase 8.
For the compound `CC12CC3CC(C)(C1)CC(NC(=O)CCCCCCCCC(=O)NO)(C3)C2`, the IC50 in the series with U-87 MG [1] came out at 9460 nM; on Histone deacetylase 1 it was 5240 nM; on Histone deacetylase 3, 3450 nM; in [9] it was 270 nM; on Histone deacetylase 8, 707 nM.
Turning to `CC12CC3CC(C)(C1)CC(NC(=O)CCCCCCCC(=O)NO)(C3)C2`, the IC50 in the series on U-87 MG [1] came out at 33600 nM; at Histone deacetylase 1, 2800 nM; on Histone deacetylase 3 it was 4130 nM; in series [9], 227 nM; on Histone deacetylase 8, 1070 nM.
Consider `CC12CC3CC(C)(C1)CC(NCc1ccc(NCc4ccc(C(=O)NO)cc4)cc1)(C3)C2`, for which the IC50 turned out to be 2400 nM with U-87 MG [1], 11000 nM on Histone deacetylase 1, 76.8 nM in [9] and 15300 nM on Histone deacetylase 8. The inhibition at 10 µM with U-87 MG [10] turned out to be 90%.
`CC12CC3CC(C)(C1)CC(NC(=O)CCCCCCC(=O)NO)(C3)C2`: the IC50 with U-87 MG [1] amounted to 18500 nM; on Histone deacetylase 1 it was 4430 nM; at Histone deacetylase 3 it was 12600 nM; in series [9], 360 nM; at Histone deacetylase 8 it was 831 nM.
Consider `CC12CC3CC(C)(C1)CC(NS(=O)(=O)c1cccc(/C=C/C(=O)NO)c1)(C3)C2`, for which the IC50 in the series on U-87 MG [1] stood at 2210 nM; at Histone deacetylase 1, 1740 nM; on Histone deacetylase 3, 2890 nM; in series [9], 93.7 nM; at Histone deacetylase 8 it was 562 nM. Moreover, the inhibition at 10 µM in the series on U-87 MG [10] is 90%.
In the case of `CC12CC3CC(C)(C1)CC(NCc1cccc(NC(=O)CCCCCCC(=O)NO)c1)(C3)C2`, the IC50 is 1400 nM with U-87 MG [1]; 679 nM at Histone deacetylase 1; 652 nM on Histone deacetylase 3; 60.8 nM in series [9]; 703 nM at Histone deacetylase 8. Further, the inhibition at 10 µM in the series with U-87 MG [10] turned out to be 90%.
Take `CC12CC3CC(C)(C1)CC(NCc1ccc(/C=C/C(=O)NO)cc1)(C3)C2`: the IC50 came out at 1870 nM in the series with U-87 MG [1], 2810 nM on Histone deacetylase 3, 77 nM in series [9] and 1030 nM at Histone deacetylase 8. The inhibition at 10 µM in the series on U-87 MG [10] amounted to 90%. In addition, the outcome in the series with U-87 MG [11] and in the series on Glioblastoma cell line was inactive. For the same compound, the Activity result in the series with A 172 [3] and in the series with A 172 [4] was “Dose-Dependent Effect” in each case. Further, the result in the series with A 172 [5], in the series with A 172 [6] and in the series with A 172 [12] was Active.
Turning to `CC12CC3CC(C)(C1)CC(NS(=O)(=O)c1ccc(/C=C/C(=O)NO)cc1)(C3)C2`, the IC50 in the series with U-87 MG [1] worked out at 1990 nM; on Histone deacetylase 1 it was 950 nM; on Histone deacetylase 3, 1030 nM; in series [9], 103 nM; at Histone deacetylase 8 it was 7380 nM. Moreover, the inhibition at 10 µM in the series on U-87 MG [10] is 90%. Also, the Activity entry with A 172 [3] and in the series with A 172 [4] was “Dose-Dependent Effect” each time. Also, the result in the series on A 172 [5], with A 172 [6] and in the series on A 172 [12] was Active.
With `O=C(CCCCCCC(=O)Nc1ccccc1)NO` [VORINOSTAT], in [13], the permeability is 1 10^-5 cm/s.
